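Cultured in 96-well plates, cells were exposed to test compound for 48 hours across five concentrations. Abbreviation: GI50, concentration required for 50% inhibition of growth.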 Active and inactive are the calls of the source. Rule as the data show it: active = GI50 up to about 1.1 µM and inactive = higher.
Assays:
Assay in all cases: NCI-60 cell line screen, 48 h
SNB-78 = system: SNB-78
CCRF-CEM = system: CCRF-CEM
KM-20L2 = system: KM-20L2
SN12C = system: SN12C
OVCAR-4 = system: OVCAR-4
UACC-257 = system: UACC-257
EKVX = system: EKVX
NCI-H522 = system: NCI-H522
KM12 = system: KM12
HOP-92 = system: HOP-92
ACHN = system: ACHN
OVCAR-8 = system: OVCAR-8
SNB-75 = system: SNB-75
CAKI-1 = system: CAKI-1
IGROV-1 = system: IGROV-1
SK-MEL-2 = system: SK-MEL-2
SK-MEL-28 = system: SK-MEL-28
OVCAR-5 = system: OVCAR-5
OVCAR-3 = system: OVCAR-3
TK-10 = system: TK-10

Measured: GI50

Cc1ccc(NC(=O)CC(=O)n2nc(-c3ccccc3)c(/N=N/c3ccccc3Cl)c2-c2ccccc2)cc1
inactive: SNB-78 > 10 µM | CCRF-CEM 41.4 µM | KM-20L2 > 10 µM | SN12C > 10 µM | OVCAR-4 26.5 µM | UACC-257 > 10 µM | EKVX 88.9 µM | NCI-H522 65.8 µM | KM12 > 10 µM | HOP-92 23.6 µM | ACHN 49.9 µM | OVCAR-8 42.5 µM | SNB-75 16.4 µM | CAKI-1 42.6 µM | IGROV-1 > 10 µM | SK-MEL-2 > 10 µM | SK-MEL-28 62.2 µM | OVCAR-5 19.4 µM | OVCAR-3 > 10 µM | TK-10 83.9 µM

O=NN1C(c2ccccc2)CCCC1c1ccccc1 (stereo not drawn)
inactive: SNB-78 46.2 µM | CCRF-CEM 52.1 µM | KM-20L2 > 100 µM | SN12C > 100 µM | OVCAR-4 35.9 µM | UACC-257 72.1 µM | EKVX > 62.2 µM | NCI-H522 23.4 µM | KM12 > 89.9 µM | HOP-92 36.4 µM | OVCAR-8 > 43.8 µM | SNB-75 28.3 µM | CAKI-1 97.7 µM | IGROV-1 > 89.7 µM | SK-MEL-2 45.9 µM | SK-MEL-28 > 100 µM | OVCAR-5 > 100 µM | OVCAR-3 > 41.8 µM

CC(OC(C)(C)C)[C@H](NC(=O)OCC(Cl)(Cl)Cl)C(=O)O (stereo partly drawn)
inactive: SNB-78 > 100 µM | CCRF-CEM > 100 µM | KM-20L2 > 100 µM | SN12C > 100 µM | OVCAR-4 > 100 µM | UACC-257 > 100 µM | EKVX > 100 µM | NCI-H522 > 100 µM | KM12 > 100 µM | HOP-92 > 100 µM | ACHN > 100 µM | OVCAR-8 > 100 µM | SNB-75 > 100 µM | CAKI-1 > 100 µM | IGROV-1 > 100 µM | SK-MEL-2 > 100 µM | SK-MEL-28 > 100 µM | OVCAR-5 > 100 µM | OVCAR-3 > 100 µM | TK-10 > 100 µM

C[C@]12CCC(=O)C(O)=C1CC[C@@H]1[C@@H]2CC[C@]2(C)C(=O)CC[C@@H]12 [FORMESTANE]
inactive: SNB-78 > 100 µM | CCRF-CEM > 100 µM | KM-20L2 > 100 µM | SN12C > 100 µM | OVCAR-4 > 100 µM | UACC-257 > 100 µM | EKVX > 88.9 µM | NCI-H522 > 100 µM | KM12 > 74.3 µM | HOP-92 > 81.8 µM | ACHN > 100 µM | OVCAR-8 > 100 µM | SNB-75 > 100 µM | CAKI-1 > 92.9 µM | IGROV-1 > 100 µM | SK-MEL-2 > 100 µM | SK-MEL-28 > 100 µM | OVCAR-5 > 100 µM | OVCAR-3 > 100 µM | TK-10 > 100 µM

C=CCN1/C(=C(\C#N)c2nc3ccccc3[nH]2)Sc2c1nc[nH]c2=O
inactive: SNB-78 > 100 µM | CCRF-CEM > 100 µM | KM-20L2 > 100 µM | SN12C > 100 µM | OVCAR-4 > 100 µM | UACC-257 > 100 µM | EKVX > 100 µM | NCI-H522 > 100 µM | KM12 > 100 µM | HOP-92 > 100 µM | ACHN > 100 µM | OVCAR-8 > 100 µM | SNB-75 31.4 µM | CAKI-1 > 100 µM | IGROV-1 > 100 µM | SK-MEL-2 > 100 µM | SK-MEL-28 > 100 µM | OVCAR-5 > 100 µM | OVCAR-3 > 100 µM | TK-10 > 100 µM
